In PMC9763333, “In vitro characterization of immune modulating drug-eluting immunobeads towards transarterial embolization in cancer” (Scientific Reports, 2022):
Several values for one entry are separate records, joined by “and”; a condition that tells them apart may be missing. Equal values may be shown once. Read-outs that look alike come from different tables or passages of the source. Each block holds one molecule with its values, some of them ahead of it.

What was measured:
[1] = parameters: method as in PMID 28188808; settings: 0.08 mmol irinotecan; cited from earlier work
[2] = pKa measurement by triple titration in methanol–water co-solvent with Yasuda-Shedlovsky extrapolation; assay type: physicochemical; settings: for pKa: methanol–water co-solvent, aqueous value by Yasuda-Shedlovsky extrapolation; for psKa1 / psKa2 / psKa3: methanol–water
Method: pKa measurements were performed by Pion Inc, UK Ltd using known methods as previously reported[47]–[50] or calculated by using software MoKa (Molecular Discovery, Borehamwood, Hertfordshire, UK, https://www.moldiscovery.com/software/moka/#references) or directly obtained from the literature. For GARD and DSR 6434, a triple titration was carried out under methanol–water co-solvent conditions from pH 2.0–12.0 at concentrations of 2.3–1.3 mM (the methanol mixing ratio varied from 49.0 to 28.9% w/w) and 1.5–0.9 mM (the methanol mixing ratio varied from 49.6 to 29.1% w/w), respectively.

[3] = Drug solubilization by salt formation in acid; assay type: physicochemical; settings: T in °C in parentheses in the cell (20.1 or 21.1)
Method: The base form of each drug was suspended in deionized water and titrated with 0.1 N hydrochloric acid (Fisher Scientific, Hampton, NH) while stirring until all the base was solubilized and the volume adjusted to a final concentration of 2.5 mg/mL. The resulting solution was frozen, then lyophilized to yield solid drug-hydrochloride salt or used in its solubilized form for loading into DC Bead LUMI. […] Doxorubicin.HCl was readily solubilized and used without modification. […] A ZORBAX Eclipse Plus C8 reversed-phase column (Agilent) and UV detector at wavelength of 230 nm were used for GS-9620 analysis. The decomposition product of GS-9620 was analyzed with reversed phase high-performance liquid chromatography (Rp-HPLC) and LC/MS.

[4] = Drug release from DC Bead LUMI in saline; assay type: physicochemical; settings: for release in saline from DC Bead LUMI after multiple washes in deionized water: single replicates, listed as DSR
Method: […] Briefly, drug-loaded DC Bead LUMI or LC Bead (62.5 µL) were placed in vessels with 50 mL of saline ([…], pH 7.4) and were agitated with upright rocking motion at a set maximum rocking speed of 10 (70 rpm) for 144 h at 37 °C using Ward's® Rotating Mixer. At scheduled time intervals identical to the loading time points, 1 mL of release media was withdrawn and used for drug quantification. To maintain 50 mL total elution volume, 1 mL of fresh saline pre heated to 37 °C was replaced at each timepoint. […] 2.4. The cumulative amount of drug released at each time point was calculated by multiplying the concentration of each sample aliquot by the total volume (50 mL) of release media and adding the sum of the amount of drug removed for sampling at prior time points. […] The 50 mL volume was chosen to ensure infinite sink conditions where the maximum possible concentration of eluted drug would be at least 10 times more dilute than the maximum solubility. This ensures the rate of release is not affected by solution concentration but is only a function of interactions of the bead, drug, and saline.

[5] = Washing of drug-loaded beads with deionized water and microscopic appearance; assay type: physicochemical
Method: (§1) Drug loading was performed in triplicate as previously reported[45] with slight modifications. […] Washing of beads is often a critical step in drug release studies as any drug left unbound to the beads affects the release profile and exaggerates the early burst release. […] However, washing was discontinued for TLR drugs as drug was continually observed even after multiple washes. […] The amount of drug loaded at the specified time points was calculated by subtracting the amount of drug remaining from the initial amount of drug in the loading solution and the cumulative amount of drug withdrawn for sampling. The maximum drug loaded in the beads was calculated once no further change in the concentration in the loading solution could be measured and before washing the beads. The relative percent drug loaded was defined as the maximum amount of drug loaded as a percent of the amount of SO3^- ions available in the beads on a molar basis using the following formula and the results are presented as the mean ± SD.

[6] = Drug loading into DC Bead LUMI; assay type: physicochemical; settings: for Relative percent drug loaded in DC Bead LUMI over time: listed as DSR; for Relative percent drug loaded (maximum, percent of SO3− available on a molar basis): mean (n = 3)
Method: as §1, with “DC Bead LUMI was analyzed for its elemental composition by MEDAC Inc. […] Drug” for “Drug”

Compound: CCc1c2c(nc3ccc(OC(=O)N4CCC(N5CCCCC5)CC4)cc13)-c1cc3c(c(=O)n1C2)COC(=O)[C@]3(O)CC [irinotecan]
time to load drug to DC Bead LUMI [1]: ≤ 10 min

pKa ([2]; read-out: pKa (first, measured)): 4.58
pKa ([2]; read-out: pKa (second, measured)): 8.5
pKa ([2]; read-out: pKa (third, measured)): 9.94
psKa1 ([2]; dielectric constant 56.6): 4.18
psKa2 ([2]; dielectric constant 56.6): 8.14
psKa3 ([2]; dielectric constant 56.6): 10.7073
psKa1 ([2]; dielectric constant 61.4): 4.3
psKa2 ([2]; dielectric constant 61.4): 8.24
psKa3 ([2]; dielectric constant 61.4): 10.5143
psKa1 ([2]; dielectric constant 65.9): 4.39
psKa2 ([2]; dielectric constant 65.9): 8.34
psKa3 ([2]; dielectric constant 65.9): 10.3389
pH at which each drug dissolved for loading [3]: 1.65 (20.1)
release behaviour in saline ([4]; DC Bead LUMI): rapid release
removal of drug from beads by repeated washing with deionized water ([5]; DC Bead LUMI): partially removed
aggregation of drug during washing / elution ([5]; deionized water and saline, microscopy): absence of aggregated
Relative percent drug loaded in DC Bead LUMI over time ([6]; 5 min, single replicates): 39.5677% and 47.7348% and 48.9285%
Relative percent drug loaded in DC Bead LUMI over time ([6]; 15 min, single replicates): 41.6488% and 50.8205% and 51.9687%
Relative percent drug loaded in DC Bead LUMI over time ([6]; 30 min, single replicates): 42.6689% and 54.1338% and 55.2332%
Relative percent drug loaded in DC Bead LUMI over time ([6]; 45 min, single replicates): 48.2468% and 57.0357% and 58.0924%
Relative percent drug loaded in DC Bead LUMI over time ([6]; 60 min, single replicates): 49.3314% and 55.3694% and 56.4506%
Relative percent drug loaded in DC Bead LUMI over time ([6]; 120 min, single replicates): 50.4129% and 60.3547% and 61.3625%
Relative percent drug loaded in DC Bead LUMI over time ([6]; 180 min, single replicates): 49.4039% and 56.8373% and 57.8969%
Relative percent drug loaded in DC Bead LUMI over time ([6]; 240 min, single replicates): 49.4386% and 53.9704% and 55.0722%
Relative percent drug loaded in DC Bead LUMI over time ([6]; 300 min, single replicates): 48.7119% and 56.2576% and 57.3257%
Relative percent drug loaded in DC Bead LUMI over time ([6]; 360 min, single replicates): 47.0211% and 54.6141% and 55.7064%
Relative percent drug loaded in DC Bead LUMI over time ([6]; 420 min, single replicates): 47.0555% and 55.952% and 57.0246%
Relative percent drug loaded in DC Bead LUMI over time ([6]; 480 min, single replicates): 47.3643% and 55.2849% and 56.3673%
Relative percent drug loaded in DC Bead LUMI over time ([6]; 1440 min, single replicates): 46.9195% and 55.3847% and 56.4657%
Relative percent drug loaded in DC Bead LUMI over time ([6]; 2880 min, single replicates): 43.3022% and 55.4842% and 56.5637%
Relative percent drug loaded in DC Bead LUMI over time ([6]; 4320 min, single replicates): 46.6711% and 54.7234% and 55.8141%
Relative percent drug loaded in DC Bead LUMI over time ([6]; 8640 min, single replicates): 45.7549% and 53.8658% and 54.9692%
loading behaviour ([6]; DC Bead LUMI): Fast loading
Relative percent drug loaded (maximum, percent of SO3− available on a molar basis) ([6]; DC Bead LUMI): 57%
Relative percent drug loaded (maximum, percent of SO3− available on a molar basis) ([6]; DC Bead LUMI, listed as DSR-6434): 57.38%
equivalent of drug loaded to sulfonated bead ([6]; DC Bead LUMI, mean ± SD): 0.16 ± 0.02 mM drug/ml beads
Maximum drug loaded ([6]; DC Bead LUMI, mean ± SD, n = 3, base form except Dox (salt form)): 65.95 ± 6.96 mg drug/ml beads
Maximum drug loaded (Triplicate), % ([6]; DC Bead LUMI, single replicates): 50.4129% and 60.3547% and 61.3625%
Drug: sulfonate ([6]; molar ratio at maximum loading, DC Bead LUMI): 0.574
Theoretical maximum loading level based on SO3− contents ([6]; per mL DC Bead LUMI, assuming 1:1 drug to sulfonate): 114.94 mg
Compound: CCCCNc1nc(N)c2[nH]c(=O)n(Cc3ccc(OCCN(C)C)nc3)c2n1 [DSR 6434]
release in saline from DC Bead LUMI after multiple washes in deionized water ([4]; 5 min): 11.6669 mg/mL of beads and 21.0618 mg/mL of beads and 12.3038 mg/mL of beads
release in saline from DC Bead LUMI after multiple washes in deionized water ([4]; 15 min): 12.2718 mg/mL of beads and 15.5382 mg/mL of beads and 12.6826 mg/mL of beads
release in saline from DC Bead LUMI after multiple washes in deionized water ([4]; 30 min): 12.9372 mg/mL of beads and 16.3714 mg/mL of beads and 14.5502 mg/mL of beads
release in saline from DC Bead LUMI after multiple washes in deionized water ([4]; 45 min): 13.4518 mg/mL of beads and 17.0028 mg/mL of beads and 14.9641 mg/mL of beads
release in saline from DC Bead LUMI after multiple washes in deionized water ([4]; 60 min): 13.786 mg/mL of beads and 17.7202 mg/mL of beads and 15.5663 mg/mL of beads
release in saline from DC Bead LUMI after multiple washes in deionized water ([4]; 120 min): 14.3607 mg/mL of beads and 18.3129 mg/mL of beads and 16.228 mg/mL of beads
release in saline from DC Bead LUMI after multiple washes in deionized water ([4]; 180 min): 16.0563 mg/mL of beads and 19.309 mg/mL of beads and 16.8971 mg/mL of beads
release in saline from DC Bead LUMI after multiple washes in deionized water ([4]; 240 min): 15.1532 mg/mL of beads and 19.1241 mg/mL of beads and 17.0694 mg/mL of beads
release in saline from DC Bead LUMI after multiple washes in deionized water ([4]; 300 min): 15.5267 mg/mL of beads and 19.8574 mg/mL of beads and 17.3452 mg/mL of beads
release in saline from DC Bead LUMI after multiple washes in deionized water ([4]; 360 min): 16.1146 mg/mL of beads and 19.776 mg/mL of beads and 18.2574 mg/mL of beads
release in saline from DC Bead LUMI after multiple washes in deionized water ([4]; 420 min): 15.8596 mg/mL of beads and 19.8188 mg/mL of beads and 17.9345 mg/mL of beads
release in saline from DC Bead LUMI after multiple washes in deionized water ([4]; 480 min): 16.4167 mg/mL of beads and 20.0149 mg/mL of beads and 17.9173 mg/mL of beads
release in saline from DC Bead LUMI after multiple washes in deionized water ([4]; 1440 min): 16.847 mg/mL of beads and 20.6066 mg/mL of beads and 18.2918 mg/mL of beads
release in saline from DC Bead LUMI after multiple washes in deionized water ([4]; 2880 min): 17.1212 mg/mL of beads and 20.6727 mg/mL of beads and 18.4291 mg/mL of beads
release in saline from DC Bead LUMI after multiple washes in deionized water ([4]; 4320 min): 17.0504 mg/mL of beads and 20.4416 mg/mL of beads and 18.5897 mg/mL of beads
release in saline from DC Bead LUMI after multiple washes in deionized water ([4]; 8640 min): 16.3092 mg/mL of beads and 19.4828 mg/mL of beads and 17.2615 mg/mL of beads
